Measured values taken from the NIST ThermoML archive (doi:10.1016/j.tca.2013.08.016).
Numbers after ± are expanded uncertainties.

Tests used:
[1] = refractive index (Na D-line) (dimensionless); φn = volume fraction of the nth substance listed; details: 101 kPa, Liquid, Standard Abbe refractometry
[2] = refractive index (Na D-line) (dimensionless); details: 101.33 kPa, Liquid, Standard Abbe refractometry

CCCC[n+]1ccccc1.F[B-](F)(F)F [1-butylpyridinium tetrafluoroborate] + CCO
[1]
Details | refractive index
303.15 K, φ1 = 0.0806 | 1.36595 ± 0.00042
303.15 K, φ1 = 0.1412 | 1.37218 ± 0.00042
303.15 K, φ1 = 0.2622 | 1.3839 ± 0.00042
303.15 K, φ1 = 0.3554 | 1.39236 ± 0.00042
303.15 K, φ1 = 0.4323 | 1.39905 ± 0.00042
303.15 K, φ1 = 0.561 | 1.40993 ± 0.00043
303.15 K, φ1 = 0.6685 | 1.41861 ± 0.00043
303.15 K, φ1 = 0.7512 | 1.42527 ± 0.00044
303.15 K, φ1 = 0.8213 | 1.43076 ± 0.00044
303.15 K, φ1 = 0.8742 | 1.43497 ± 0.00044
303.15 K, φ1 = 0.9217 | 1.43861 ± 0.00044
303.15 K, φ1 = 0.9612 | 1.44158 ± 0.00045
303.15 K, φ1 = 1 | 1.44454 ± 0.00045
313.15 K, φ1 = 0.0802 | 1.36207 ± 0.00042
313.15 K, φ1 = 0.1405 | 1.36844 ± 0.00042
313.15 K, φ1 = 0.2611 | 1.38045 ± 0.00042
313.15 K, φ1 = 0.3541 | 1.389 ± 0.00042
313.15 K, φ1 = 0.4308 | 1.39575 ± 0.00042
313.15 K, φ1 = 0.5595 | 1.40676 ± 0.00043
313.15 K, φ1 = 0.6672 | 1.4156 ± 0.00043
313.15 K, φ1 = 0.7501 | 1.42236 ± 0.00044
313.15 K, φ1 = 0.8205 | 1.42796 ± 0.00044
313.15 K, φ1 = 0.8736 | 1.43225 ± 0.00044
313.15 K, φ1 = 0.9213 | 1.43596 ± 0.00044
313.15 K, φ1 = 0.961 | 1.43898 ± 0.00045
313.15 K, φ1 = 1 | 1.4419 ± 0.00045
323.15 K, φ1 = 0.0798 | 1.35794 ± 0.00042
323.15 K, φ1 = 0.1398 | 1.3646 ± 0.00042
323.15 K, φ1 = 0.26 | 1.37704 ± 0.00042
323.15 K, φ1 = 0.3528 | 1.38573 ± 0.00042
323.15 K, φ1 = 0.4294 | 1.39254 ± 0.00042
323.15 K, φ1 = 0.5581 | 1.40354 ± 0.00043
323.15 K, φ1 = 0.6659 | 1.41255 ± 0.00043
323.15 K, φ1 = 0.749 | 1.41938 ± 0.00044
323.15 K, φ1 = 0.8196 | 1.42508 ± 0.00044
323.15 K, φ1 = 0.8729 | 1.42947 ± 0.00044
323.15 K, φ1 = 0.9209 | 1.43328 ± 0.00044
323.15 K, φ1 = 0.9607 | 1.43633 ± 0.00045
323.15 K, φ1 = 1 | 1.43924 ± 0.00045

CCCC[n+]1ccccc1.F[B-](F)(F)F [1-butylpyridinium tetrafluoroborate] + CO
[1]
Details | refractive index
293.15 K, φ1 = 0.0747 | 1.33926 ± 0.0004
293.15 K, φ1 = 0.1041 | 1.34327 ± 0.0004
293.15 K, φ1 = 0.2013 | 1.35648 ± 0.00041
293.15 K, φ1 = 0.3315 | 1.37286 ± 0.00041
293.15 K, φ1 = 0.4125 | 1.38271 ± 0.00042
293.15 K, φ1 = 0.5222 | 1.39563 ± 0.00042
293.15 K, φ1 = 0.6527 | 1.41047 ± 0.00043
293.15 K, φ1 = 0.7475 | 1.42106 ± 0.00043
293.15 K, φ1 = 0.8152 | 1.42843 ± 0.00044
293.15 K, φ1 = 0.8666 | 1.43377 ± 0.00044
293.15 K, φ1 = 0.9113 | 1.43844 ± 0.00044
293.15 K, φ1 = 0.9687 | 1.44425 ± 0.00044
293.15 K, φ1 = 1 | 1.44719 ± 0.00045
303.15 K, φ1 = 0.0742 | 1.3354 ± 0.0004
303.15 K, φ1 = 0.1035 | 1.33949 ± 0.0004
303.15 K, φ1 = 0.2002 | 1.35293 ± 0.00041
303.15 K, φ1 = 0.3301 | 1.36955 ± 0.00041
303.15 K, φ1 = 0.411 | 1.37949 ± 0.00041
303.15 K, φ1 = 0.5206 | 1.39258 ± 0.00042
303.15 K, φ1 = 0.6513 | 1.40757 ± 0.00043
303.15 K, φ1 = 0.7463 | 1.41824 ± 0.00043
303.15 K, φ1 = 0.8142 | 1.42561 ± 0.00044
303.15 K, φ1 = 0.8658 | 1.43105 ± 0.00044
303.15 K, φ1 = 0.9108 | 1.43576 ± 0.00044
303.15 K, φ1 = 0.9685 | 1.4416 ± 0.00044
303.15 K, φ1 = 1 | 1.44454 ± 0.00045
313.15 K, φ1 = 0.0737 | 1.33144 ± 0.0004
313.15 K, φ1 = 0.1028 | 1.33587 ± 0.0004
313.15 K, φ1 = 0.1991 | 1.34941 ± 0.00041
313.15 K, φ1 = 0.3286 | 1.36646 ± 0.00041
313.15 K, φ1 = 0.4096 | 1.3765 ± 0.00041
313.15 K, φ1 = 0.5189 | 1.38958 ± 0.00042
313.15 K, φ1 = 0.6498 | 1.40471 ± 0.00043
313.15 K, φ1 = 0.745 | 1.41542 ± 0.00043
313.15 K, φ1 = 0.8132 | 1.42273 ± 0.00044
313.15 K, φ1 = 0.865 | 1.42832 ± 0.00044
313.15 K, φ1 = 0.9103 | 1.433 ± 0.00044
313.15 K, φ1 = 0.9683 | 1.43897 ± 0.00044
313.15 K, φ1 = 1 | 1.4419 ± 0.00045
323.15 K, φ1 = 0.0732 | 1.32837 ± 0.0004
323.15 K, φ1 = 0.1022 | 1.33278 ± 0.0004
323.15 K, φ1 = 0.1981 | 1.3469 ± 0.00041
323.15 K, φ1 = 0.3271 | 1.3641 ± 0.00041
323.15 K, φ1 = 0.408 | 1.37436 ± 0.00041
323.15 K, φ1 = 0.5172 | 1.38733 ± 0.00042
323.15 K, φ1 = 0.6482 | 1.40238 ± 0.00043
323.15 K, φ1 = 0.7438 | 1.41283 ± 0.00043
323.15 K, φ1 = 0.8122 | 1.42002 ± 0.00044
323.15 K, φ1 = 0.8642 | 1.42546 ± 0.00044
323.15 K, φ1 = 0.9097 | 1.43029 ± 0.00044
323.15 K, φ1 = 0.9681 | 1.43614 ± 0.00044
323.15 K, φ1 = 1 | 1.43924 ± 0.00045

CCO [ethanol]
[2]
Details | refractive index
293.15 K | 1.36144 ± 0.00041
303.15 K | 1.35702 ± 0.00041
313.15 K | 1.3527 ± 0.00041
323.15 K | 1.34837 ± 0.00041

CCO [ethanol] + CCCC[n+]1ccc(C)cc1.F[B-](F)(F)F
[1], φ2 = 0
Details | refractive index
293.15 K | 1.36144 ± 0.00041
303.15 K | 1.35702 ± 0.00041
313.15 K | 1.3527 ± 0.00041
323.15 K | 1.34837 ± 0.00041

CCO [ethanol] + CCCC[n+]1cccc(C)c1.F[B-](F)(F)F
[1], φ2 = 0
Details | refractive index
293.15 K | 1.36144 ± 0.00041
303.15 K | 1.35702 ± 0.00041
313.15 K | 1.3527 ± 0.00041
323.15 K | 1.34837 ± 0.00041

CCO [ethanol] + CCCC[n+]1ccccc1.F[B-](F)(F)F
[1], φ2 = 0
Details | refractive index
303.15 K | 1.35702 ± 0.00041
313.15 K | 1.3527 ± 0.00041
323.15 K | 1.34837 ± 0.00041

CO [methanol]
[2]
Details | refractive index
293.15 K | 1.32843 ± 0.0004
303.15 K | 1.32433 ± 0.0004
313.15 K | 1.32015 ± 0.0004
323.15 K | 1.3167 ± 0.0004

CO [methanol] + CCCC[n+]1ccc(C)cc1.F[B-](F)(F)F
[1], φ2 = 0
Details | refractive index
293.15 K | 1.32843 ± 0.0004
303.15 K | 1.32433 ± 0.0004
313.15 K | 1.32015 ± 0.0004
323.15 K | 1.3167 ± 0.0004

CO [methanol] + CCCC[n+]1cccc(C)c1.F[B-](F)(F)F
[1], φ2 = 0
Details | refractive index
293.15 K | 1.32843 ± 0.0004
303.15 K | 1.32433 ± 0.0004
313.15 K | 1.32015 ± 0.0004
323.15 K | 1.3167 ± 0.0004

CO [methanol] + CCCC[n+]1ccccc1.F[B-](F)(F)F
[1], φ2 = 0
Details | refractive index
293.15 K | 1.32843 ± 0.0004
303.15 K | 1.32433 ± 0.0004
313.15 K | 1.32015 ± 0.0004
323.15 K | 1.3167 ± 0.0004
